The experiment has as its system BCAS mice. In words: Immunostaining of brains of BCAS mice (MBP, APC, NG2, caspase 3/Olig2, GFAP, tNKCC1). The class given is in vivo, C57BL/6J mice. The text has this: Clinically, most patients with intracranial atherosclerotic stenosis suffer from permanent stenosis without occlusion. Therefore, to mimic clinical atherosclerotic stenosis with permanent carotid artery (CCA) hypoperfusion, a modified BCAS model was adapted by ligating the CCA guided with a 30 gauge needle (0.31 mm diameter) in the right CCA and a 33 gauge needle (0.21 mm diameter) in the left CCA with a 4-0 silk suture. […] Next, changes of total NKCC1 (tNKCC1) protein expression were surveyed in different brain regions at 2 and 4 wks post-surgery by immunofluorescence staining (IF). […] Therefore, in the rest of the study, the investigation was focused on its association to white matter GFAP^+ astrogliosis and lesion of CC and external capsul (EC) tracks. […] However, by 2 wks post-BCAS surgery, tNKCC1 immunofluorescence intensity in the CC tracks was increased by ˜3 folds (p<0.05), and further elevated to ˜6 folds by 4 wks (p<0.05, arrowhead). Data are mean±SEM, n=4, *p<0.05, **p<0.01. […] The upregulation of tNKCC1 and GFAP protein expression in the CC is correlated, with a Pearson's correlation coefficient of r=0.9 (p<0.001). […] In contrast, no elevated tNKCC1 protein was detected either in Iba1^+ microglia/macrophages or in Olig2+ oligodendrocytes (OL) at 4 wks post-BCAS surgery (FIG. 1D). Without wishing to be bound by theory, these findings indicate that upregulation of NKCC1 expression and activity in reactive astrocytes may play a critical role in white matter inflammation, OL death, and demyelination after BCAS. Next, whether administration of SPAK inhibitor ZT-1a reduces WML and improves cognitive functions was examined. Starting at 14 days after BCAS surgery in mice (male), either vehicle DMSO (Veh, 2 ml/kg) or ZT-1a (5 mg/kg, every 72 h, i.p) was administered every 3 days, until they were sacrificed at day 35 post-BCAS (FIG. 3A). […] Motor functions are similar in all groups and average swimming speeds were not different in the Sham-, Veh- and ZT-1a-treated mice. Data are mean±SEM, n=6 (Sham and ZT-1a) or 5 (Veh), *p<0.01 vs. sham, *p<0.05 vs. Veh. After completion of the neurological function tests in the Veh-control and ZT-1a-treated BCAS cohort mice (as shown in FIG. 3A and FIG. 3B), ex-vivo brains were harvested for MRI DTI (diffusion tensor imaging) analysis of WML at 4 wks post-BCAS detected by DTI. The fractional anisotropy (FA), radial diffusivity (RD), and mean diffusivity (MD) of the CC and EC tracks were analyzed. Representative images of the DEC maps in FIG. 4A show severe loss of axonal fibers (arrowheads) in the CC and left EC of the Veh-control brains. […] These observations are consistent with changes of FA, RD, and MD values (FIG. 4B). […] Then MBP expression levels were measured in these brains by immunostaining. […] Taken together, these findings illustrated that post-BCAS administration of SPAK inhibitor ZT-1a reduces BCAS-induced white matter demyelination. […] To test this, immunostaining of the same cohort of brains (of FIG. 4A-D) was conducted to analyze oligodendrocyte precursor cell (OPC) counts (NG2^+), differentiated mature OLs (APC^+), and apoptotic OLs (caspase 3^+Olig2^+) in the Sham, Veh-, and ZT-1a-treated BCAS mice. […] Referring to FIG. 5A and FIG. 5B, representative double immunofluorescence images of APC (mature oligodendrocyte marker)/NG2 (oligodendrocyte precursor cell marker) in CC (FIG. 5A) and EC (FIG. 5B) of Sham, Veh-, and ZT-1a-treated brains at 4-wk after BCAS surgery. Nuclei were counterstained with DAPI. Quantitative analyses of APC^+/DAPI^+ cells and NG2^+/DAPI^+ cells is shown. Data are mean±SEM, n=4, *p<0.05, […]. Referring to FIG. 5C, representative double immunofluorescence images of Caspase 3^+/Olig2^+ cells in CC of Sham, Veh-, and ZT-1a-treated brains. Data are mean±SEM, n=4, *p<0.05. Without wishing to be bound by theory, it is speculated that ZT-1a treatment preserves white matter integrity via reducing reactive astrocyte-mediated inflammation in white matter tracks. […]

The mark [1] stands for this setting: 4 wks post-BCAS, vs Veh-controls.

Molecules are shown by their SMILES.

Consider `Cc1cc(C(C#N)c2ccc(Cl)cc2)c(Cl)cc1NC(=O)c1cc(Cl)ccc1O` (stereo not drawn) [1a (ZT-1a)], for which, for the setting “4 weeks after BCAS, n=4”, the “decrease in GFAP expression in CC” value was about 50% and the “decrease in tNKCC1 expression in CC” value is listed as about 60%. In addition, under setting [1], the “APC+ cell counts (mature OLs) in the CC and EC tracts” value was “significantly higher”; the “NG2+ cell counts (OPC) in the CC and EC tracts” value is recorded as “significantly higher”; the “caspase 3+ OLs cell counts in CC” value is given as “less”. Besides, under “4 wks post-BCAS, vs Veh-treated BCAS brains, p<0.05”, the “MBP protein expression in the CC and EC tracks” value is recorded as “less MBP loss”.
